Data taken from the SangsterLogP compilation.

Assay: method code SF, from DOI: 10.1515/bc.2003.056, PMID: 12715901

In order of rising logP:
1. CC(C)OC(=O)C1(C)CCC=[N+]1[O-] (stereo unspecified)  -0.7
2. CCOC(=O)C1(CC)CCC=[N+]1[O-] (stereo unspecified)  -0.6
3. CCC1(C(=O)OC(C)C)CCC=[N+]1[O-] (stereo unspecified)  -0.18
4. CCCOC(=O)C1(CC)CCC=[N+]1[O-] (stereo unspecified)  -0.11
5. CCC1(C(=O)OC(C)(C)C)CCC=[N+]1[O-] (stereo unspecified)  0.18
6. CCC(C)OC(=O)C1(CC)CCC=[N+]1[O-] (stereo unspecified)  0.28
7. CCCC1(C(=O)OC(C)C)CCC=[N+]1[O-] (stereo unspecified)  0.29
8. CCCOC(=O)C1(CCC)CCC=[N+]1[O-] (stereo unspecified)  0.42
9. CCCC1(C(=O)OC(C)(C)C)CCC=[N+]1[O-] (stereo unspecified)  0.43
10. CCCCOC(=O)C1(CC)CCC=[N+]1[O-] (stereo unspecified)  0.46
11. CCCCOC(=O)C1(CCC)CCC=[N+]1[O-] (stereo unspecified)  0.89
